# Experimental data published in the supplement of paper PMC10307832.
# Key:
# Test in all cases: relative viability (nuclei count vs DMSO), 5 days (fraction); higher = more cells survive
# BGJ398 + Trametinib = compound: CCN1CCN(c2ccc(Nc3cc(N(C)C(=O)Nc4c(Cl)c(OC)cc(OC)c4Cl)ncn3)cc2)CC1 [BGJ398] + CC(=O)Nc1cccc(-n2c(=O)n(C3CC3)c(=O)c3c(Nc4ccc(I)cc4F)n(C)c(=O)c(C)c32)c1 [Trametinib] (partner 0.02 µM)
# How it was run: (§1)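 Dosing by pin tool came one day after lung cancer cell lines were seeded in 1536-well plates, using either one drug or a fixed anchor-drug dose plus five library-drug doses (not always all listed) in √10 steps. After 5 days, nuclei were counted on 4× images. Relative viability is treated-well nuclei count divided by vehicle-well nuclei count, and values are medians of duplicate plates.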
# BGJ398 + Pictilisib = compound: CCN1CCN(c2ccc(Nc3cc(N(C)C(=O)Nc4c(Cl)c(OC)cc(OC)c4Cl)ncn3)cc2)CC1 [BGJ398] + CS(=O)(=O)N1CCN(Cc2cc3nc(-c4cccc5[nH]ncc45)nc(N4CCOCC4)c3s2)CC1 [Pictilisib] (partner 1 µM)
# How it was run: as §1
# [1] = compound: C1=CC2=NC=CN=C2C=C1/C=C/3\C(=O)NC(=O)S3 + Cc1nc(Nc2ncc(C(=O)Nc3c(C)cccc3Cl)s2)cc(N2CCN(CCO)CC2)n1 [Dasatinib] (partner 0.075 µM)
# How it was run: as §1
# BGJ398 + Foretinib = compound: CCN1CCN(c2ccc(Nc3cc(N(C)C(=O)Nc4c(Cl)c(OC)cc(OC)c4Cl)ncn3)cc2)CC1 [BGJ398] + COc1cc2c(Oc3ccc(NC(=O)C4(C(=O)Nc5ccc(F)cc5)CC4)cc3F)ccnc2cc1OCCCN1CCOCC1 [Foretinib] (partner 0.25 µM)
# How it was run: as §1
Cell Line,relative viability (BGJ398 + Trametinib; first compound 0.01 µM),relative viability (BGJ398 + Trametinib; first compound 0.03162 µM),relative viability (BGJ398 + Trametinib; first compound 0.1 µM),relative viability (BGJ398 + Trametinib; first compound 0.3162 µM),relative viability (BGJ398 + Trametinib; first compound 1 µM),relative viability (BGJ398 + Pictilisib; first compound 0.01 µM),relative viability (BGJ398 + Pictilisib; first compound 0.03162 µM),relative viability (BGJ398 + Pictilisib; first compound 0.1 µM),relative viability (BGJ398 + Pictilisib; first compound 0.3162 µM),relative viability (BGJ398 + Pictilisib; first compound 1 µM),relative viability ([1]; first compound 0.02 µM),relative viability ([1]; first compound 0.06325 µM),relative viability ([1]; first compound 0.2 µM),relative viability ([1]; first compound 0.6325 µM),relative viability ([1]; first compound 2 µM),relative viability (BGJ398 + Foretinib; first compound 0.01 µM),relative viability (BGJ398 + Foretinib; first compound 0.1 µM),relative viability (BGJ398 + Foretinib; first compound 0.3162 µM),relative viability (BGJ398 + Foretinib; first compound 1 µM),relative viability (BGJ398 + Foretinib; first compound 0.03162 µM)
HCC-44,1.01,1.03,1.03,1.04,0.949,0.544,0.671,0.682,0.602,0.401,,,,,,,,,,
HCC-827,0.482,,0.542,0.399,0.623,0.961,0.696,0.977,0.817,1.03,0.338,0.194,0.267,0.301,0.266,0.926,1.02,1,1.13,
NCI-H1623,,,,,,,,,,,0.511,0.523,0.526,0.524,0.422,0.907,0.937,0.84,0.713,0.723
NCI-H2347,0.32,0.239,0.275,0.309,0.259,0.615,0.964,0.591,0.593,0.918,0.318,0.26,0.306,0.304,0.293,1.02,0.838,0.717,0.741,1.12
PC-14,0.762,0.821,0.735,,0.903,0.696,0.346,0.92,0.669,0.866,0.287,0.207,0.301,0.265,0.238,0.905,1.02,0.802,1.03,0.618
NCI-H1651,0.804,0.876,0.922,0.806,0.841,0.46,0.625,0.574,0.507,0.546,0.403,0.452,0.461,0.311,0.21,0.753,0.94,0.73,0.677,0.781
HARA,0.778,0.41,0.43,0.604,0.437,0.346,0.426,0.371,0.283,0.185,0.278,0.315,0.3,0.243,0.194,0.941,0.829,0.905,0.79,0.901
NCI-H1650,0.503,0.568,0.471,0.304,0.25,0.497,0.394,0.416,0.153,0.316,0.274,0.355,0.364,0.289,0.248,1.31,1.17,0.857,1.08,
NCI-H1395,0.986,0.963,0.666,0.555,0.587,0.664,0.674,0.568,0.357,0.364,0.44,0.386,0.417,0.417,0.354,0.877,0.819,0.756,0.614,0.955
LU99A,0.461,0.487,0.498,0.401,0.401,0.281,0.314,0.302,0.307,0.261,0.576,0.922,0.462,0.508,0.287,0.761,0.855,0.897,0.756,0.804
NCI-H1355,0.374,0.44,0.452,0.382,0.329,0.396,0.477,0.5,0.496,0.271,0.476,0.599,0.709,0.714,0.47,0.925,1.03,0.951,0.898,0.98
HCC-78,0.55,0.868,0.858,0.696,0.619,0.184,0.217,0.188,0.194,0.221,0.381,0.705,0.517,0.392,0.184,0.563,0.504,0.614,0.549,0.597
NCI-H1563,,,,,,0.66,0.612,0.512,0.479,0.475,0.477,0.435,0.523,0.486,0.316,0.924,0.946,0.814,0.752,0.931
HCC-15,0.331,0.401,0.378,0.433,0.393,0.67,0.703,0.79,0.805,0.723,0.665,0.644,0.687,0.55,0.42,0.978,1.04,1.13,1.07,1.1
EKVX,0.326,0.336,0.368,0.261,0.359,0.437,0.395,0.479,0.406,0.46,0.515,0.356,0.701,0.524,0.427,0.763,0.805,0.643,0.686,0.409
NCI-H2087,0.142,0.22,0.188,0.197,0.189,0.669,0.994,0.966,0.85,1.08,0.761,0.713,0.911,0.857,0.507,1.05,1.18,1.15,1.09,1.33
LK-2,0.788,0.726,0.561,0.32,0.268,0.555,0.529,0.326,0.235,0.245,0.291,0.349,0.306,0.297,0.189,1.28,0.897,0.618,0.309,0.947
